Reference: article PMC7465669, “Screening of Heteroaromatic Scaffolds against Cystathionine Beta-Synthase Enables Identification of Substituted Pyrazolo[3,4-c]Pyridines as Potent and Selective Orthosteric Inhibitors” (Molecules, 2020)

Target: T1, cystathionine β-synthase (CBS) (Homo sapiens, UniProt P35520)
T1 construct: full-length human CBS, GST-fusion
T1 sequence (P35520 1-551): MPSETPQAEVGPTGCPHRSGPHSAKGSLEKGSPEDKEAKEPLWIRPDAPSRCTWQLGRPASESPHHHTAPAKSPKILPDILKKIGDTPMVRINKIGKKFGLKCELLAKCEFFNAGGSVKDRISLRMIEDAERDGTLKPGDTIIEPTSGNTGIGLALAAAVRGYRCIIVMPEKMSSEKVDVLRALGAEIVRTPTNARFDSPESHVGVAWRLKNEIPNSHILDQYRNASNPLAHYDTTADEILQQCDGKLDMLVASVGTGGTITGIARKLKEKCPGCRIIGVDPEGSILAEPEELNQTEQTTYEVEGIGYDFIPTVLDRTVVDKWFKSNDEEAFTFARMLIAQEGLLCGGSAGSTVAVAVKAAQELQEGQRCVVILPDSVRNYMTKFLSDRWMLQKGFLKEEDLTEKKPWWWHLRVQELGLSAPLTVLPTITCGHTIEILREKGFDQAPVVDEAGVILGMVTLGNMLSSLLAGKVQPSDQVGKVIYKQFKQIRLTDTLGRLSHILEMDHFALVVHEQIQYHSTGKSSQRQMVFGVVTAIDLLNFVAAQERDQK
Assay: methylene blue H2S assay, recombinant enzyme; confirmed by AzMC assay (IC50 […])
Type: biochemical

- IC50: 11 µM
Compound: COc1ccc(Cn2ncc3cc(Nc4ccc(N5CCN(C)CC5)cc4)nc(N4CCN(C)CC4)c32)cc1 [compound 1, 1]
